Assay [1] concerns the target T1, Neuropeptide Y receptor type 1 (Homo sapiens, UniProt P25929).
T1 sequence (P25929 whole entry): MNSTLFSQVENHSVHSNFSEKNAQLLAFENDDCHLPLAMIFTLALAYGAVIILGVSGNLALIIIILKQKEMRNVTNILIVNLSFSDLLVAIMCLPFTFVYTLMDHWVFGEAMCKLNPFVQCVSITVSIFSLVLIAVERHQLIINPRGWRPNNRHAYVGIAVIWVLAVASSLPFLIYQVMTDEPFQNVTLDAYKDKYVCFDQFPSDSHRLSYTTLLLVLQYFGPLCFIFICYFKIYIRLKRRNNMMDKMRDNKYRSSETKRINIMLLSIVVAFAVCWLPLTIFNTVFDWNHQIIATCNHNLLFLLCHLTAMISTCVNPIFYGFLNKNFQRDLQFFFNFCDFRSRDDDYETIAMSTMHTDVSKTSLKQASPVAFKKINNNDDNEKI
Nature of the assay: Tested for radioligand binding affinity against membranes from COS-7 cells transiently transfected with Neuropeptide Y receptor type 1. In kind it is cell membranes.

Assay [2] has as its target T2, Neuropeptide Y receptor type 5 (Homo sapiens, UniProt Q15761).
T2 sequence (Q15761 whole entry): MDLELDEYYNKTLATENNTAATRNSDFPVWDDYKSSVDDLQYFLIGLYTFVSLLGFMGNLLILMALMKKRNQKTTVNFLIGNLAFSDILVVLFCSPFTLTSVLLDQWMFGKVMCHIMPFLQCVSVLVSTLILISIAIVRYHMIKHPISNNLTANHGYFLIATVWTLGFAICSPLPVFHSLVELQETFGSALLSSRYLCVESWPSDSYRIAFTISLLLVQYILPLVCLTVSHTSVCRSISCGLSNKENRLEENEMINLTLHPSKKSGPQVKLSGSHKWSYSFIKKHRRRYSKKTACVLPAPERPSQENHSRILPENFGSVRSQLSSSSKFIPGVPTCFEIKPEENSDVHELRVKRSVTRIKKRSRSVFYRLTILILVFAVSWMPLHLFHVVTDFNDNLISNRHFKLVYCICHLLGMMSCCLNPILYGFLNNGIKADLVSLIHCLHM
The assay is described as follows: Tested for radioligand binding affinity against membranes from COS-7 cells transiently transfected with Neuropeptide Y receptor type 5. In kind it is cell membranes.

For another assay, the target named is D(2) dopamine receptor (Homo sapiens, UniProt P14416). Nature of the assay: Binding affinity against cloned human Dopamine receptor D2 was evaluated.
Assay [3] addresses T3, Neuropeptide Y receptor type 5 (Rattus norvegicus, UniProt Q63634).
T3 sequence (Q63634 whole entry): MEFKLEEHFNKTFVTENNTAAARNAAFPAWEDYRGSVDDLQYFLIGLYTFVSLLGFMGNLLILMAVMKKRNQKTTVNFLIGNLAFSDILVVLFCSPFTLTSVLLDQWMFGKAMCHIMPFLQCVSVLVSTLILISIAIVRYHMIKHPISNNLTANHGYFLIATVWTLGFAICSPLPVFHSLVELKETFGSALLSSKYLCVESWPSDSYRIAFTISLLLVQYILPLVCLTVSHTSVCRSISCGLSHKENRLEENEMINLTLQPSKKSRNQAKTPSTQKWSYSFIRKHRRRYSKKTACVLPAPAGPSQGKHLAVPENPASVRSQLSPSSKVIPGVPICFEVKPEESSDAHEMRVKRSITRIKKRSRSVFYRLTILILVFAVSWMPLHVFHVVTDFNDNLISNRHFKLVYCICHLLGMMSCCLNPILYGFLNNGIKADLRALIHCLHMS
The assay is described as follows: Functional response of NPY to inhibit forskolin-stimulated cAMP in cells stably transfected with rat Neuropeptide Y receptor type 5.

The target of assay [4] is T4, Neuropeptide Y receptor type 1 (Rattus norvegicus, UniProt P21555).
T4 sequence (P21555 whole entry): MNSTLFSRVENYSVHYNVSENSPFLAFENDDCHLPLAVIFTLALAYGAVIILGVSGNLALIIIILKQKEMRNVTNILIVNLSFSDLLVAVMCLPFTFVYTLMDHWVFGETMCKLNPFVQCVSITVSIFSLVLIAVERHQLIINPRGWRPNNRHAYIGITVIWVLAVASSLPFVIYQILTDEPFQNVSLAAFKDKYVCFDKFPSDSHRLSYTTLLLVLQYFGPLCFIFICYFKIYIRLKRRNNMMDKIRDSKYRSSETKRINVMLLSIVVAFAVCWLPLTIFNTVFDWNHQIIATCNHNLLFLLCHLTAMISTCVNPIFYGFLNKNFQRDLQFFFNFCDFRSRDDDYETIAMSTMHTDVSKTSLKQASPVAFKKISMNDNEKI
Nature of the assay: Functional response of NPY to inhibit forskolin-stimulated cAMP in cells stably transfected with Neuropeptide Y receptor type 1.

Assay [5] has as its target T5, Alpha-2C adrenergic receptor (Homo sapiens, UniProt P18825).
T5 sequence (P18825 whole entry): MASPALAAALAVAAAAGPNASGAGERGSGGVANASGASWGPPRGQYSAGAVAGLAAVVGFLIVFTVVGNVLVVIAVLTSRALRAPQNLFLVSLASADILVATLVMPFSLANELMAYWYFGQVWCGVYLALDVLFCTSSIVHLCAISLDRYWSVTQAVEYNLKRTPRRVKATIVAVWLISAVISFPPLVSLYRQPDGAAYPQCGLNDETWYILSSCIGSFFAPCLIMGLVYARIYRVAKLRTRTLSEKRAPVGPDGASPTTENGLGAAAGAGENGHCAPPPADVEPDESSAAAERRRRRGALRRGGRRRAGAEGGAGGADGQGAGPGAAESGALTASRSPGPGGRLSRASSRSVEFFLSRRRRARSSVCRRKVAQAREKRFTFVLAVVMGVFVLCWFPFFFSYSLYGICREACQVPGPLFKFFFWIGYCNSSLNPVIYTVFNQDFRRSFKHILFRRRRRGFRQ
The assay is described as follows: Bnding affinity against cloned human Alpha-2C adrenergic receptor was evaluated.

D(2) dopamine receptor, sequence (P14416 whole entry): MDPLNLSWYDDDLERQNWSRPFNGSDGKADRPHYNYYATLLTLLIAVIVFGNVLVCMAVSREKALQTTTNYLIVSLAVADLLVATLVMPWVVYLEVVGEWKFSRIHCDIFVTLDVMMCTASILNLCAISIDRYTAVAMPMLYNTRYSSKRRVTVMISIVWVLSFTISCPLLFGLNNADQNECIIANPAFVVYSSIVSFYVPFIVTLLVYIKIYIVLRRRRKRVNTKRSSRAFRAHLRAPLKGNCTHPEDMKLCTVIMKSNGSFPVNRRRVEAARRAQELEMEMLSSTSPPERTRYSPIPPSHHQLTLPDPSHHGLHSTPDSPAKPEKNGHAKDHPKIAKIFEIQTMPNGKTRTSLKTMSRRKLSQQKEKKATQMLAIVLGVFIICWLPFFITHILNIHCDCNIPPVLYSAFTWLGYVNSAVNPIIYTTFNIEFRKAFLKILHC

As a reminder, the Ki is the equilibrium dissociation constant of an inhibitor or competing ligand from its target. `Nc1ccccc1S(=O)(=O)NC[C@H]1CC[C@H](CNCC2CCc3ccccc3C2)CC1` (some centres undefined): the Ki came to 17200 nM in assay [1] and 10 nM in assay [2].
For the compound `O=[N+]([O-])c1ccccc1S(=O)(=O)NC[C@H]1CC[C@H](CNCC2CCc3ccccc3C2)CC1` (some centres undefined), the Ki in assay [1] amounted to 16000 nM; in assay [2], 8 nM; at D(2) dopamine receptor, 63 nM; in assay [3] it was 18 nM; in assay [4], 22000 nM; in assay [5], 100 nM.
On to `O=[N+]([O-])c1ccccc1S(=O)(=O)NC[C@H]1CC[C@H](CNCc2ccnc3ccccc23)CC1`, for which the Ki turned out to be 48700 nM in assay [1] and 28 nM in assay [2].
For `O=S(=O)(NCCCCCCNCc1ccc2ccccc2c1)c1ccc2ccccc2c1`, in that order: 7300 nM and 123 nM.
`O=[N+]([O-])c1ccccc1S(=O)(=O)NC[C@H]1CC[C@H](CNCc2ccc3ccccc3n2)CC1` gave a Ki in assay [1] of 23700 nM.
Take `O=S(=O)(NC[C@H]1CC[C@H](CNCc2ccc3ccccc3c2)CC1)c1ccccc1C(F)(F)F`: the Ki turned out to be 13000 nM in assay [1] and 10 nM in assay [2].
On the same counts, the results for `O=S(=O)(NC[C@H]1CC[C@H](CNCc2cccc3ccccc23)CC1)c1ccccc1C(F)(F)F` are 14500 nM and 26 nM.
For `O=S(=O)(NC[C@H]1CC[C@H](CNCC2CCc3ccccc3C2)CC1)c1cccc2ccccc12` (some centres undefined), in that order: 3550 nM and 11 nM.

The record behind these values is ChEMBL document CHEMBL1135171, “Discovery of potent and selective small molecule NPY Y5 receptor antagonists” (Bioorg Med Chem Lett, 2002).
